# Assay results published in the supplement of paper PMC10307832.
# Legend:
# Assay in all cases: relative viability (nuclei count vs DMSO), 5 days (fraction); higher = more cells survive
# [1] = compound: CC(C)N(CCCNC(=O)Nc1ccc(C(C)(C)C)cc1)C[C@H]1O[C@@H](n2ccc3c(N)ncnc32)[C@H](O)[C@@H]1O + Cc1nc(NC(=O)N2CCC[C@H]2C(N)=O)sc1-c1ccnc(C(C)(C)C(F)(F)F)c1 [Alpelisib] (partner 2 µM)
# How it was run: (§1)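 Dosing by pin tool came one day after lung cancer cell lines were seeded in 1536-well plates, using either one drug or a fixed anchor-drug dose plus five library-drug doses (not always all listed) in √10 steps. After 5 days, nuclei were counted on 4× images. Relative viability is treated-well nuclei count divided by vehicle-well nuclei count, and values are medians of duplicate plates.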
# Shikonin + Palbociclib = compound: CC(C)=CC[C@@H](O)C1=CC(=O)c2c(O)ccc(O)c2C1=O [Shikonin] + CC(=O)c1c(C)c2cnc(Nc3ccc(N4CCNCC4)cn3)nc2n(C2CCCC2)c1=O [Palbociclib] (partner 0.5 µM)
# How it was run: as §1
# [2] = compound: CC(C)N(CCCNC(=O)Nc1ccc(C(C)(C)C)cc1)C[C@H]1O[C@@H](n2ccc3c(N)ncnc32)[C@H](O)[C@@H]1O + Nc1ncn([C@H]2C[C@H](O)[C@@H](CO)O2)c(=O)n1 [Decitabine] (partner 2 µM)
# How it was run: as §1
# Shikonin + Pemetrexed = compound: CC(C)=CC[C@@H](O)C1=CC(=O)c2c(O)ccc(O)c2C1=O [Shikonin] + Nc1nc2[nH]cc(CCc3ccc(C(=O)N[C@@H](CCC(=O)O)C(=O)O)cc3)c2c(=O)[nH]1 [Pemetrexed] (partner 0.2 µM)
# How it was run: as §1
Cell Line,relative viability ([1]; first compound 0.08 µM),relative viability ([1]; first compound 0.253 µM),relative viability ([1]; first compound 0.8 µM),relative viability ([1]; first compound 2.53 µM),relative viability ([1]; first compound 8 µM),relative viability (Shikonin + Palbociclib; first compound 0.01 µM),relative viability (Shikonin + Palbociclib; first compound 0.1 µM),relative viability (Shikonin + Palbociclib; first compound 0.3162 µM),relative viability (Shikonin + Palbociclib; first compound 1 µM),relative viability ([2]; first compound 0.08 µM),relative viability ([2]; first compound 0.253 µM),relative viability ([2]; first compound 0.8 µM),relative viability ([2]; first compound 2.53 µM),relative viability ([2]; first compound 8 µM),relative viability (Shikonin + Pemetrexed; first compound 0.01 µM),relative viability (Shikonin + Pemetrexed; first compound 0.1 µM),relative viability (Shikonin + Pemetrexed; first compound 0.3162 µM),relative viability (Shikonin + Pemetrexed; first compound 1 µM)
NCI-H2170,0.736,0.762,0.82,0.815,0.908,0.392,0.376,0.395,0.422,0.477,0.418,0.42,0.438,0.471,0.25,0.284,0.282,0.272
NCI-H838,0.983,0.804,1.04,1.03,0.99,0.231,0.246,0.197,0.243,0.454,0.431,0.491,0.483,0.511,0.234,0.24,0.243,0.258
HCC-15,0.79,0.863,0.891,0.93,0.811,0.781,0.676,0.817,0.724,0.655,0.592,0.65,0.646,0.544,0.228,0.225,0.233,0.213
LCLC-103H,1.03,0.905,0.907,0.99,0.898,0.462,0.498,0.521,0.429,0.688,0.719,0.666,0.716,0.68,0.436,0.49,0.46,0.477
NCI-H460,0.378,0.582,0.442,0.301,0.396,0.166,0.227,0.2,0.222,0.484,0.488,0.455,0.435,0.414,0.0561,0.0603,0.06,0.063
EPLC-272H,0.95,0.912,0.856,1.03,1.03,0.373,0.321,0.336,0.282,0.366,0.381,0.368,0.413,0.39,0.264,0.314,0.334,0.297
